Measured values from PubChem BioAssay AID449762 (Southern Research Specialized Biocontainment Screening …, 2010).
pIC50: −log10 of the molar value. Inconclusive results are not listed.

Test system: M. tuberculosis H37Rv growth inhibition, 7H9 media
Assay: M. tuberculosis growth inhibition, HTS (AID 449762);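 note: bacterial growth assessed after seven days of incubation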
Details: for IC90: measured here: IC90 growth inhibition

| SMILES | pIC50 | IC90 [µM] |
| --- | --- | --- |
| CCc1ccc2c(c1)C1(C(=O)N2)N2CCCC2C(C(=O)c2ccc3ccccc3c2)C12C(=O)Nc1ccccc12 (stereo unspecified) | 4.88 | 30.9 |
| O=C(CCl)NCc1cc(-c2ccc(Cl)cc2)no1 | > 6.70 | 1.33 |
| COc1ccc(-c2oc3cccnc3c2/C=C/c2ccc(OC)c(OC)c2)cc1 | 4.29 | > 100 |
| COc1ccc2cc1Oc1ccc(cc1)C[C@H]1c3c(cc(OC)c4c3Oc3c(ccc5c3[C@H](C2)N(C)CC5)O4)CCN1C | 5.31 | 6.44 |
| CCOC(=O)c1cc(-c2ccc(N3CCOCC3)cc2)nn1-c1ccccc1 | 4.87 | 45.2 |
| CCc1cc(C(=O)NNC(=O)CCl)sc1C | 5.59 | 4.62 |
| c1ccc(C2[C@H]3CN(CC4CCCCC4)[C@H](c4ccccc4)C34CC2(c2cccnc2)C4)cc1 (stereo partly specified) | 4.50 | 41.5 |
| COCCn1nnnc1C(c1cc2cc(OC)ccc2[nH]c1=O)N1CCC(Cc2ccccc2)CC1 (stereo unspecified) | 4.05 | 99.8 |
| CCCCCC(O)c1cccc(OCc2ccc3ccccc3n2)c1 (stereo unspecified) | 4.35 | 50.5 |
| COc1cc2c(C(=O)N3CCN(c4cccc(Cl)c4)CC3)cn(CC(C)C)c(=O)c2cc1OC | 4.32 | 53.9 |
| C=CCOc1ccccc1CN(C(=O)CCl)c1ccc2c(c1)OCO2 | 6.04 | 2.58 |
| O=C(O)c1ccc(N2C(=O)/C(=C/c3ccc(-c4ccc([N+](=O)[O-])cc4)o3)C=C2c2ccccc2)cc1 | 4.76 | 40.2 |
| O=C(Cc1ccccc1)N/N=C/c1ccc2cccc(O)c2n1 | 5.12 | 12.3 |
| Cc1ccc(Nc2nc(CSc3nnc(-c4cccs4)o3)cs2)cc1 | 4.39 | > 100 |
| Nc1cc(C(=O)OCC(=O)NNC(=O)c2cccs2)ccc1Cl | 4.19 | > 100 |
| Cc1cc(C(=O)CCl)c(C)n1CCc1ccc(Cl)cc1 | 6.47 | 2.18 |
| Nc1[nH]n2c(=O)cc(-c3ccccc3)nc2c1N=Nc1ccc2c(c1)OCO2 | 4.63 | 26.6 |
| CCN(CC)CCOC(=O)c1ccc(N/C=C(/C#N)c2nc(-c3ccc4c(c3)OCO4)cs2)cc1 | 4.55 | 53.3 |
| O=C(NCCc1ccc(Cl)cc1)c1ccc(CS(=O)Cc2ccc(Cl)cc2)o1 (stereo unspecified) | 4.42 | 49.1 |
| COc1cccc(-n2nnc3c(=O)n(CC(=O)N4CCC(Cc5ccccc5)CC4)cnc32)c1 | 4.63 | 36.7 |
| O=C1N/C(=N\N=C\c2ccccn2)SC1Cc1cccc(SC(F)F)c1 (stereo unspecified) | 4.14 | > 100 |

| SMILES | pIC50 | IC90 [µM] |
| --- | --- | --- |
| O=C(CSc1nc(Nc2ccccc2)nc(N2CCOCC2)n1)Nc1cc(Cl)ccc1O | 4.36 | > 50 |
| CC1(C)OC(=O)C(=Cc2ccc[nH]2)C(=O)O1 | > 6.70 | 24.1 |
| Cc1ccc(C)c(S(=O)(=O)N2CCC(c3nc4c(nnn4Cc4ccc5c(c4)OCCO5)c(=O)[nH]3)CC2)c1 | 4.64 | > 100 |
| COc1ccc(C(=O)C2CCCN(C3CSCCSC3)C2)c(C)c1 (stereo unspecified) | 4.64 | 26.4 |
| Cc1sc2ncnc(N3CCC(C(=O)NCC(=O)Nc4ccc(F)c(F)c4)CC3)c2c1C | 4.42 | 50 |
| Cc1nonc1NC(=O)CSc1ccc(-c2ccccc2)nn1 | 4.68 | 52.9 |
| Cc1nn(Cc2ccccc2)c(C)c1C(=O)OCC(=O)c1cc(C)n(CC(F)(F)F)c1C | 4.93 | 35.4 |
| COc1ccc(Cc2nc3ccc(C(=O)NCCCSC)cc3o2)cc1OC | 4.39 | > 100 |
| CC(C)OC(=O)/C(C#N)=C/c1ccc(-c2ccc(SC(F)F)cc2)o1 | 5.28 | 16.8 |
| CC(C)(C)c1ccc(Cn2c(=N)n(CC(O)c3ccco3)c3ccccc32)cc1 (stereo unspecified) | 4.75 | 22.2 |
| CCOC(=O)c1c(C)n(-c2ccc(C)cc2)c2ccc(OCC(O)CNCC3CCCO3)cc12 (stereo unspecified) | 4.64 | 31 |
| O=C(CSc1n[nH]c(-c2ccccc2)n1)Nc1ccc(Br)cn1 | – | > 100 |
| Cc1ccc(C(=O)N/C(=C/c2ccc(-c3cc(C(F)(F)F)ccc3Cl)o2)C(=O)NCc2cccnc2)cc1 | 4.42 | > 100 |
| CCCOc1ccc(C(=O)NC(=S)NCc2cccnc2)cc1 | 4.67 | 28 |
| Cc1ccn2c(NC3CCCCC3)c(-c3cccc(-c4cccc(Cl)c4)c3)nc2c1 | 4.85 | 27 |
| O=C(c1ccccc1)c1ccc(OCCOCCN2CCN(Cc3ccccc3)CC2)cc1 | 4.63 | 37.5 |
| CCCCOCCCn1c(-c2ccco2)nc2nc3ccccc3nc21 | 4.02 | > 100 |
| O=C(c1cc2nc(-c3ccc(F)cc3)cc(C(F)(F)F)n2n1)N1CCCCC1c1cccnc1 (stereo unspecified) | 4.86 | 31.4 |
| CC1=NNC(=O)/C1=C\c1cn(-c2ccccc2)nc1-c1ccc(Cl)cc1 | 4.54 | 37.2 |
| CCn1cnc2sc(C(=O)Oc3ccc(Br)cc3)c(C)c2c1=O | 5.49 | 11.3 |
| Fc1ccc(C[n+]2c(-c3ccccc3)cc(-c3ccccc3)cc2-c2ccccc2)cc1 | 4.49 | 44.3 |

| SMILES | pIC50 | IC90 [µM] |
| --- | --- | --- |
| COC(=O)[C@H](CC(C)C)NC(=O)c1cc2c(cn1)[nH]c1ccccc12 | 5.07 | 29.2 |
| Cc1cc(C)cc(-n2c(C)c3c(C)nnc(C)c3c2C)c1 | 4.20 | 78.1 |
| COc1ccc(C(=O)c2c(C(F)(F)F)oc3c2C(=O)c2ccccc2C3=O)cc1OC | 4.92 | 17.7 |
| COc1cc2c(cc1NC(=O)CN1C(=O)NC3(CCc4ccccc43)C1=O)oc1ccccc12 (stereo unspecified) | 4.53 | > 100 |
| CC(C)=CCOc1ccc([C@@H]2COc3c(ccc4c3C=CC(C)(C)O4)C2)c(O)c1 | 5.32 | 7.77 |
| Cc1cc(N2CCN(c3ccc(C(F)(F)F)cc3[N+](=O)[O-])CC2)c2ccccc2n1 | 4.67 | 23.7 |
| CCOC(=O)C1CCN(c2cc3c(cc2NC(=O)c2ccccc2Cl)n(C)c(=O)n3C)CC1 | 4.33 | 53.9 |
| CC(C)c1ccc(N2C(=O)NC(=O)/C(=C\C=C\c3ccco3)C2=O)cc1 | 4.66 | 35.7 |
| COCC(=O)O[C@]1(CCN(C)CCCc2nc3ccccc3[nH]2)CCc2cc(F)ccc2[C@@H]1C(C)C | 4.49 | 42.6 |
| CSc1ccc(CNC(=O)c2ccc(NC(=O)C3=CSCCO3)cc2)cc1 | 6.18 | > 100 |
| CC(NC(=O)CCl)c1ccc(Cl)c(Cl)c1 (stereo unspecified) | 5.93 | 2.91 |
| CC1(C)Cc2ccccc2C2=NNC(=O)C2=N1 | 4.95 | 21 |
| CON(C)c1nc(C2CCCCC2)c2cc(C)ccc2n1 | 4.22 | 75.5 |
| O=c1/c(=C\c2ccc(O)cc2)sc2n1C(c1ccccc1)C(c1ccccc1)=NN=2 (stereo unspecified) | 4.25 | 87.2 |
| Cc1ccccc1N1CCN(c2ncnc3c2cnn3Cc2ccc(Cl)cc2)CC1 | 5.29 | 8.72 |
| CCOC(=O)c1c(NC(=O)C(NCCN(C)C)c2ccccc2)sc2c1CCCC2 (stereo unspecified) | 5.32 | 10.1 |
| CCCCCCc1cc2cc(C(=O)NCc3ccccc3)c(=N)oc2cc1O | 5.46 | 5.73 |
| C=CCNCC(=O)N1N=C(c2ccc3ccccc3c2)CC1c1ccc(OC)cc1 (stereo unspecified) | 4.66 | 24.3 |
| COc1ccc(C=C2C=C(C(C)(C)C)C(=O)C(C(C)(C)C)=C2)cc1OC | 5.53 | 5.15 |
| Cc1c(C(=O)Nc2nc3ccccc3[nH]2)oc2c(Cl)cccc12 | 4.17 | > 100 |
| CC1=NN(C(=O)c2ccc(Br)cc2)C(O)(c2ccccc2)C1 (stereo unspecified) | 4.32 | 65.6 |

| SMILES | pIC50 | IC90 [µM] |
| --- | --- | --- |
| Oc1[nH]c2ccccc2c1N=NC(=S)N1CCOCC1 | 4.91 | 13.9 |
| Cn1nc(-c2ccc(N3CCCCC3)c(NC(=O)c3ccco3)c2)c2ccccc2c1=O | 5.63 | 16.1 |
| C=CCN(C(=O)CSc1nc2c(sc3ccccc32)c(=O)n1CCN(CC)CC)c1ccccc1 | 4.54 | 36 |
| CCN1C(N(C)CCc2c[nH]c3ccccc23)=N[C@@H](c2cccc(C(F)(F)F)c2)C(C(=O)OC)=C1C | 4.67 | 23.7 |
| C=CCN(CC=C)C(=S)NC(=O)c1ccc(-c2ccccc2)cc1 | 4.97 | 14.1 |
| COc1cc(OC)c(OC)cc1CCC(C)NCCC(c1ccccc1)c1ccccc1 (stereo unspecified) | 4.65 | 25 |
| COc1ccc(C(CCNCc2ccc(OC(C)C)cc2)C(C)C)cc1 (stereo unspecified) | 4.63 | 26.9 |
| CCOC(=O)C1=NOC(CNc2ncc(C(F)(F)F)cc2Cl)C1 (stereo unspecified) | 5.15 | 14.1 |
| Cc1ccc(C(=O)O/N=C\c2ccc(N3CCCCC3)c([N+](=O)[O-])c2)cc1 | 4.66 | 49 |
| O=C(C[n+]1ccc(C(=O)c2ccccc2)cc1)Nc1ccc(C(F)(F)F)cc1 | 4.67 | 23.7 |
| COc1ccccc1/C=N/NC(=O)NC12CC3CC(CC(C3)C1)C2 | – | > 100 |
| C=C(C)C(=O)OCC(O)COc1ccc(C(C)(C)c2ccc(OCC(O)COC(=O)C(=C)C)cc2)cc1 (stereo unspecified) | 4.42 | 48.5 |
| N#Cc1ccc(CN2CCN(CC(=O)NCCc3ccc(Cl)cc3Cl)CC2)cc1 | 4.37 | 54 |
| O=C(c1ccc(CNc2c(N3CCCC3)c(=O)c2=O)cc1)N1CC=C(c2ccccc2)CC1 | 6.12 | 0.87 |
| CC(C)(C)c1ccc(C(=O)NNc2cc(N3CCCCC3)nc(N3CCCCC3)n2)cc1 | 4.22 | 74.8 |
| Cc1ccccc1-n1c(SCC(=O)N/N=C/c2c(C)nn(-c3ccccc3)c2C)nc2ccccc2c1=O | 5.55 | 3.52 |
| C=CCNC(=S)N/N=C(\C)c1ccccn1 | 5.15 | 17.7 |
| O=C(NC1CCCCCC1)c1ccccc1-c1ccccc1 | 4.74 | > 100 |
| CCCn1nc(C(=O)NNC(=O)c2ccc(C)c(C)c2)c2ccccc2c1=O | 4.95 | 15.9 |
| Nc1c(C(=O)O)cnc2c(-c3ccc(Cl)cc3)cnn12 | 4.59 | 55.6 |
| C/C(O)=C\c1nc2ccccc2oc1=O | 6.11 | 0.86 |
